The assay has as its system avocados. In words: Mass loss rates of avocados coated with compounds extracted by thermal depolymerization of cutin. On the set-up: species or system avocado. To be noted: unpeeled avocados dipped in 10 mg/mL solution in ethanol, humidity about 40%-55%. On the procedure:
Protective coatings were formed over avocados by extracting compounds by method described herein (thermal depolymerization of cutin) and depositing the compounds over the outer surface of the (unpeeled) avocados. The mass loss rates of the avocados were then measured and compared to those of uncoated avocados. All coatings were formed by dipping the avocados in a solution comprising the associated compounds dissolved in substantially pure ethanol at a concentration of 10 mg/mL, placing the avocados on drying racks, and allowing the avocados to dry under ambient room conditions at a temperature in the range of about 23° C.-27° C. and humidity in the range of about 40%-55%. The avocados were held at these same temperature and humidity conditions for the entire duration of the time they were tested.
Mass loss rates are shown in FIG. 16 for untreated (e.g., uncoated) avocados in bar 1602, for avocados coated with ethyl 10,16-dihydroxyhexadecanoate (referred to as “EtDHPA”) in bar 1604, and for avocados coated with a mixture of EtDHPA and 1,3-dihydroxypropan-2-yl hexadecanoate (referred to as “PA-2G”) in bar 1606, where for bar 1606 the EtDHPA and PA-2G were mixed at a mass ratio of 30:70. […]

As to `CCOC(=O)CCCCCCCCC(O)CCCCCCO` (centres unmarked) [EtDHPA, ethyl 10,16-dihydroxyhexadecanoate], where the note is “dried, held at about 23-27 °C, group of 30 avocados, FIG. 16”, the “average rate of mass decrease of coated avocados (mass loss rate)” value is reported as “about 1.06 % per day”. Moreover, the “reduction of average mass loss rate as compared to the uncoated avocados” value (about 23-27 °C, uncoated avocados about 1.21% per day) is given as “more than 12%”.

The values above are taken from patent publication US11767278B2, “Plant extract compositions for forming protective coatings” (Apeel Technology, Inc., priority 2015, dated 2023).
